According to patent US20090306058A1, “Sulphone Derivatives for Treatment of Cancer” (priority 2005, published 2009):

Test system: Cells expressing Notch (ALL-SIL, DND-41, HPB-ALL or TALL-1)
Test: Assay for Cell Cycle Arrest
Assay type: cell-based
Settings: concentrations up to 10 μM, incubation typically 4-8 days, in comparison to untreated controls
Protocol: Cells expressing Notch (ALL-SIL, DND-41, HPB-ALL or TALL-1) (Weng et al, Science, 306 (2004), 269-71) were incubated in the presence or absence of a compound of the instant invention (e.g. the compound of Examples 2 and 7 below) at concentrations up to 10 μM. At the end of the incubation (typically 4-8 days), the cells were collected, fixed in 70% ethanol on ice for >2 hours, washed, then labelled for 15 min at 37° C. with propidium iodide (0.2 mg/ml) (PI) in the presence of 0.1% Triton X100 and 0.2 mg/ml RNase and subjected to FACS analysis.

CC[C@@H]1C[C@H]2C[C@@](c3cc(F)ccc3F)(S(=O)(=O)c3ccc(C(F)(F)F)cc3)CC[C@H]2NS1(=O)=O [Example 2, (3R,4aS,6S,8aR)-6-(2,5-difluorophenyl)-3-ethyl-6-{[4-(trifluoromethyl)phenyl]sulfonyl}octahydro-1H-2,1-benzothiazine 2,2-dioxide]
cell cycle populations by FACS (propidium iodide): severe loss of G2- and S-phase populations
